The term IC50 denotes the concentration needed to halve the response being measured. Broadly, the EC50 is the concentration that produces a half-maximal response. Usually MTD stands for the largest dose that counted as tolerated.

One data set deals with RAW264.7. As to the kind of experiment: Cytotoxicity against mouse RAW264.7 cells assessed as inhibition of cell viability incubated for 72 hrs by CCK8 assay. Type of data set: functional, cell-based. The settings on record: RAW264.7, 72 h. (Tetrazolium dyes change colour on reduction, which living cells bring about.)
The test system of data set [1] is CTLL-2. As to the kind of experiment: Induction of ferroptosis in mouse CTLL-2 cells assessed as increase in intracellular Ca2+ concentration at 10 uM incubated for 45 mins in presence of CM4620 by Fluo-4 AM dye based analysis. It counts as functional, cell-based.
The test system of data set [2] is Mus musculus. As to the kind of experiment: Anti-aplastic anemia activity in C57BL/6J mouse model of immune-mediated bone marrow failure assessed as CD8+ T cells at 15 mg/kg, IG qd treated for 12 days by flow cytometry (reference value: 72.15 %). Type of data set: functional. To be noted: time 12 day.
In data set [3] the test system is Mus musculus. As to the kind of experiment: Anti-aplastic anemia activity in C57BL/6J mouse model of immune-mediated bone marrow failure assessed as increase in body weight at 5 to 15 mg/kg, IG qd treated for 21 days. Type of data set: functional, organism-based. The settings on record: dose 5-15 mg/kg, time 21.0 day.
Data set [4] in a line: Induction of ferroptosis in mouse CTLL-2 cells assessed as increase in intracellular Ca2+ concentration incubated for 45 mins by Fluo-4 AM dye based analysis. It counts as functional, cell-based. The settings on record: CTLL-2, 0.75 h.
In data set [5] the test system is CTLL-2. As to the kind of experiment: Induction of ferroptosis in IL-2-stimulated mouse CTLL-2 cells assessed as increase in p-p38 level at 30 uM incubated for 6 hrs followed by Fer-1 addition measured after 10 hrs by Western blot analysis. It counts as functional, cell-based. The settings on record: time 16.0 hrs. On the technique in general: A western blot detects proteins with antibodies after separation by electrophoresis.

Data set [6] relates to CD8-positive T cell. As to the kind of experiment: Inhibition of CD3/CD28-activated CD8-positive T cell activation in BALB/c mouse lymph nodes assessed as decrease in IFN-gamma level at 1 to 10 uM incubated for 72 hrs by ELISA. It counts as functional, tissue-based. The settings on record: Lymph node, dose 1-10 µM. In general terms: In an ELISA, binding on a coated surface is turned into a signal by an enzyme label.

For data set [7], the system named is CTLL-2. Kind of data set: Induction of ferroptosis in mouse CTLL-2 cells assessed as increase in extracellular Ca2+ influx at 10 uM incubated for 24 hrs in presence of EDTA by Fluo-4 AM dye based analysis. It counts as functional, cell-based.
Data set [8] has as its system Mus musculus. As to the kind of experiment: Anti-aplastic anemia activity in C57BL/6J mouse model of immune-mediated bone marrow failure assessed as increase in white blood cells treated intragastrically once daily for 21 days. Type of data set: functional, organism-based. To be noted: dose 5-15 mg/kg, route ig, time 21.0 day.
Another data set has as its system IEC-6. As to the kind of experiment: Induction of ferroptosis in rat IEC-6 cells assessed as increase in intracellular Ca2+ concentration at 10 uM by Fluo-4 AM dye based analysis. It counts as functional, cell-based.
Data set [9] can be described thus: Acute toxicity in 12 hr-fasted KM mouse assessed as maximum tolerable dose administered orally as single dose measured for 14 days. The settings on record: in vivo, route po, time 14 day.
The test system of data set [10] is Mus musculus. As to the kind of experiment: Anti-aplastic anemia activity in C57BL/6J mouse model of immune-mediated bone marrow failure assessed as decrease in CD8+ T cells at 5 to 15 mg/kg, IG qd treated for 12 days by flow cytometry. The settings on record: dose 5-15 mg/kg, time 12.0 day. It counts as functional, organism-based.
Data set [11] concerns Mus musculus. Kind of data set: Anti-aplastic anemia activity in BALB/c mouse model of immune-mediated bone marrow failure assessed as increase in nucleated cells in bone marrow at 10 mg/kg, po treated for 14 days by H and E staining based analysis. Type of data set: functional, organism-based. The settings on record: time 14.0 day.
For data set [12], the system named is CTLL-2. As to the kind of experiment: Induction of ferroptosis in mouse CTLL-2 cells assessed as increase in ROS level at 10 uM incubated for 45 mins in presence of CM4620. It counts as functional, cell-based.
Data set [13] has as its system CTLL-2. As to the kind of experiment: Induction of ferroptosis in mouse CTLL-2 cells assessed as increase in pERK level at 7.5 to 30 uM incubated for 16 hrs by Western blot analysis. To be noted: dose 7.5-30 µM. It counts as functional, cell-based.
Data set [14] relates to CD8-positive T cell. Kind of data set: Inhibition of CD3/CD28-activated CD8-positive T cell activation in BALB/c mouse lymph nodes assessed as decrease in CD69 expression level at 1 to 10 uM incubated for 72 hrs by flow cytometry. It counts as functional, tissue-based. The settings on record: Lymph node, dose 1-10 µM.
In data set [15] the test system is Mus musculus. Kind of data set: Anti-aplastic anemia activity in C57BL/6J mouse model of immune-mediated bone marrow failure assessed as reduction in cytotoxic T lymphocytes accumulation at 5 to 15 mg/kg, IG qd treated for 12 days. It counts as functional, organism-based. To be noted: dose 5-15 mg/kg, time 12.0 day.
For data set [16], the system named is Mus musculus. As to the kind of experiment: Anti-aplastic anemia activity in C57BL/6J mouse model of immune-mediated bone marrow failure assessed as CD4+ T cells at 15 mg/kg, IG qd treated for 12 days by flow cytometry (reference value: 12.93 %). Type of data set: functional. To be noted: time 12 day.
The subject of data set [17] is CD8-positive T cell. As to the kind of experiment: Inhibition of CD3/CD28-activated CD8-positive T cell activation in BALB/c mouse lymph nodes assessed as decrease in lactate production at 1 to 10 uM incubated for 72 hrs. Type of data set: functional, tissue-based. To be noted: Lymph node, dose 1-10 µM.
Data set [18] is described as follows: Drug metabolism in rat plasma assessed as hydrolyzation/double hydroxylation-mediated metabolite formation at 50 mg/kg, po measured for 24 hrs by HRMS analysis. It counts as ADME, organism-based. The settings on record: in vivo.
The nature of data set [19]: Drug metabolism in mouse spleen assessed as (4bR,9S)-1-(hydroxymethyl)-3,7-dimethoxy-11-methyl-6-oxo-6,8a,9,10-tetrahydro-5H-9,4b-(epiminoethano)phenanthren-4-yl cinnamate metabolite formation at 50 mg/kg, po measured for 0.083 to 8 hrs by HPLC analysis. It counts as ADME, organism-based. To be noted: in vivo, time 0.083-8 hrs.
A short description of data set [20]: Stability in mouse bone marrow assessed as compound remaining at 50 mg/kg, po measured for 0.083 to 8 hrs by HPLC analysis. It counts as ADME, organism-based. To be noted: in vivo, time 0.083-8 hrs.
The nature of data set [21]: Drug metabolism in Sprague-Dawley rat plasma assessed as (4bR,9S)-1-(hydroxymethyl)-3,7-dimethoxy-11-methyl-6-oxo-6,8a,9,10-tetrahydro-5H-9,4b-(epiminoethano)phenanthren-4-yl cinnamate metabolite formation at 5 mg/kg, iv measured for 24 hrs by HPLC analysis. Type of data set: ADME, organism-based. The settings on record: in vivo.
The nature of data set [22]: Drug metabolism in mouse thymus assessed as (4bR,9S)-1-(hydroxymethyl)-3,7-dimethoxy-11-methyl-6-oxo-6,8a,9,10-tetrahydro-5H-9,4b-(epiminoethano)phenanthren-4-yl cinnamate metabolite formation at 50 mg/kg, po measured for 0.083 to 8 hrs by HPLC analysis. It counts as ADME, organism-based. To be noted: in vivo, time 0.083-8 hrs.
A short description of data set [23]: Drug metabolism in rat plasma assessed as cinnamic acid metabolite formation at 50 mg/kg, po measured for 24 hrs by HPLC-UV analysis. It counts as ADME, organism-based. The settings on record: in vivo.
Data set [24] can be described thus: Drug metabolism in mouse bone marrow assessed as cinnamic acid metabolite formation at 50 mg/kg, po measured for 0.083 to 8 hrs by HPLC analysis. Type of data set: ADME, organism-based. The settings on record: in vivo, time 0.083-8 hrs.
Data set [25] can be described thus: Drug metabolism in mouse blood assessed as cinnamic acid metabolite formation at 50 mg/kg, po measured for 0.083 to 8 hrs by HPLC analysis. It counts as ADME, organism-based. The settings on record: in vivo, time 0.083-8 hrs.
Data set [26] in a line: Drug metabolism in mouse thymus assessed as cinnamic acid metabolite formation at 50 mg/kg, po measured for 0.083 to 8 hrs by HPLC analysis. It counts as ADME, organism-based. To be noted: in vivo, time 0.083-8 hrs.
Data set [27] can be described thus: Drug metabolism in mouse lymph node assessed as (4bR,9S)-1-(hydroxymethyl)-3,7-dimethoxy-11-methyl-6-oxo-6,8a,9,10-tetrahydro-5H-9,4b-(epiminoethano)phenanthren-4-yl cinnamate metabolite formation at 50 mg/kg, po measured for 0.083 to 8 hrs by HPLC analysis. The settings on record: in vivo, time 0.083-8 hrs. Type of data set: ADME, organism-based.
The nature of data set [28]: Stability in rat plasma at 50 mg/kg, po measured for 24 hrs by HPLC analysis. Type of data set: ADME, organism-based. To be noted: in vivo.
Data set [29] can be described thus: Drug metabolism in mouse plasma assessed as (4bR,9S)-1-(hydroxymethyl)-3,7-dimethoxy-11-methyl-6-oxo-6,8a,9,10-tetrahydro-5H-9,4b-(epiminoethano)phenanthren-4-yl cinnamate metabolite formation administered orally by HRMS analysis. Type of data set: ADME. To be noted: po.

Each structure is given as a SMILES string. The source made the active and inactive calls. No cut-off for these calls is given here. Where only a bound is given, the exact number is not on record here.

With `COC1=C[C@@H]2[C@@H]3Cc4c(CO)cc(OC)c(OC(=O)/C=C/c5ccccc5)c4[C@]2(CCN3C)CC1=O`, the IC50 in the data set on RAW264.7 turned out to be 492 µM. Also, the outcome with CTLL-2 [1], in the data set on CTLL-2 [5] and in the data set on CTLL-2 [12] was inactive. For the same compound, the Activity in the data set on Mus musculus [2] is 35.23%; in the data set on Mus musculus [8] it was “Dose-dependent-effect”; in the data set on IEC-6, “Not active; Elevation Was Smaller Than In Mouse Ctll-2 Cells”; with Mus musculus [16], 37.87%. The outcome in the data set on Mus musculus [3], in the data set on CTLL-2 [7], in the data set on Mus musculus [10], in the data set on Mus musculus [11], in the data set with CTLL-2 [13] and with Mus musculus [15] was Active. For the same compound, the EC50 in data set [4] worked out at 10.1 µM. In addition, the inhibition entry in the data set on CD8-positive T cell [6], with CD8-positive T cell [14] and with CD8-positive T cell [17] was “Active” in each case. Further, in data set [9], the maximum tolerated dose (MTD) at 336 h is over 10000 mg/kg.
Turning to `COC1=C[C@@H]2[C@@H]3Cc4c(COC(=O)/C=C/c5ccccc5)cc(OC)c(OC(=O)/C=C/c5ccccc5)c4[C@]2(CCN3C)CC1=O`, the Drug metabolism result in data set [18], in data set [19], in data set [21], in [22], in data set [23] and in data set [24] was “metabolite_detected” throughout. Also, the Drug metabolism result in data set [25], in data set [26], in data set [27] and in data set [29] was “metabolite_detected” in each case. Moreover, the Stability result in data set [20] and in data set [28] was “Unstable” each time.

Values taken from ChEMBL document CHEMBL6177973, “A Novel Compound 3a-M1, from Metabolites of Sinomenine Derivative 3a, Exerts Potent Anti-Aplastic Anemia Activity via IP3R/ORAI-Mediated CTL Ferroptosis” (J Med Chem, 2025).
